Converted amounts (≈) assume the structure as drawn.
test system: Mycobacterium tuberculosis variant bovis BCG; assay: microbe, parasite or virus in culture; type: functional

Compound | MIC90 [µM]
O=C(C=Cc1cccs1)N1CCN(Cc2ccc(Br)s2)CC1 | 2.8 (≈ 1.11 µg/mL)
CN1CCN(c2ccc(C(F)(F)F)cc2NC(=O)c2ccccn2)CC1 | 7.2 (≈ 2.62 µg/mL)
O=C(Nc1ccc2c(c1)OCC(=O)N2Cc1ccccc1Cl)NC1CCCCC1 | 5.7 (≈ 2.36 µg/mL)
Oc1nc(-c2ccccn2)nc(C(F)(F)F)c1Br | 9.6 (≈ 3.07 µg/mL)
Cc1ccc2nc(C(F)(F)F)c(C(=O)NCc3cccc(OC(C)C)c3)n2c1 | 1.9 (≈ 0.744 µg/mL)
Cc1nc2ccccn2c1C(=O)NCc1ccc2c(c1)OCO2 | 3 (≈ 0.928 µg/mL)
COc1cc(C(=O)Nc2nc(-c3ccccn3)cs2)ccc1OCC(C)C | 7 (≈ 2.68 µg/mL)
Cc1ccc2nc(C(F)(F)F)c(C(=O)NCc3ccc4c(c3)OCO4)n2c1 | 1.8 (≈ 0.679 µg/mL)
O=C(CCc1cccs1)Nc1nc(-c2ccccn2)cs1 | 6.4 (≈ 2.02 µg/mL)
O=C(Nc1ccc(Oc2ccccc2)cc1)NC1CCCCC1 | 3.9 (≈ 1.21 µg/mL)
CCc1c(C)nc(-n2nc(C)cc2NC(=O)c2cccc3ccccc23)[nH]c1=O | 1.8 (≈ 0.697 µg/mL)
CC1Sc2ccc(C(=O)N3CCCCC3c3nc4ccccc4s3)cc2NC1=O (stereo not drawn) | 9.8 (≈ 4.15 µg/mL)
Fc1ccc2[nH]c(-c3cccc(-c4ccc(CNCCN5CCNCC5)cc4)c3)nc2c1 | 6.7 (≈ 2.88 µg/mL)
Fc1cccc2sc(Nc3nc(-c4ccccn4)cs3)nc12 | 2.3 (≈ 0.755 µg/mL)
Cc1ccc(NC(=O)C2COc3ccccc3C2)cc1Cl (stereo not drawn) | 8.5 (≈ 2.57 µg/mL)
O=C(Nc1nnc(-c2ccc(Cl)s2)o1)c1ccc(Br)s1 | 3 (≈ 1.17 µg/mL)
O=C(Nc1nnc(SCc2ccc(Cl)cc2)s1)c1ccccn1 | 4 (≈ 1.45 µg/mL)
CCCSc1ncccc1C(=O)Nc1ccccc1Nc1ccccc1 | 0.8 (≈ 0.291 µg/mL)
Cc1csc2nc(Cc3ccc(C(=O)c4ccc(C(=O)OCc5ccccc5)cc4)cc3)oc(=O)c12 | 2.3 (≈ 1.14 µg/mL)
N#Cc1ccc(-c2ccc(OCC(=O)NNC(=O)c3ccco3)cc2)cc1 | 2.8 (≈ 1.01 µg/mL)

Compound | MIC90 [µM]
O=C(NNC(=O)c1[nH]nc2ccccc12)c1ccco1 | 8.3 (≈ 2.24 µg/mL)
COc1ccc2cnnc(SCC(=O)NNC(=O)c3cccs3)c2c1OC | 3 (≈ 1.21 µg/mL)
Cc1nc(SCC(=O)Nc2sccc2C#N)n(Cc2ccc(Cl)cc2)c1C | 8.1 (≈ 3.38 µg/mL)
c1cncc(NCc2ccc(-c3cc4ccncc4cc3OC3CCNCC3)s2)c1 | 8.3 (≈ 3.46 µg/mL)
COc1cc(C(F)(F)F)nc2ccc(C)c(N)c12 | 9.7 (≈ 2.49 µg/mL)
Cc1ccc(NC(=O)CCC(=O)NNC(=O)c2cccs2)cc1C | 8.3 (≈ 2.87 µg/mL)
CCCCNC(=O)c1cccc(-c2ccc(OCc3ccccc3)cc2)c1 | 9.9 (≈ 3.56 µg/mL)
Cc1cc(C)c2cc(CN(Cc3cccnc3)C(=O)c3ccc(F)cc3)c(Cl)nc2c1 | 2.9 (≈ 1.26 µg/mL)
Cc1ccc(-c2nnc(NC(=O)c3cccc(F)c3)o2)cc1C | 5 (≈ 1.56 µg/mL)
O=C(/C=C/c1ccc(C(F)(F)F)cc1F)NC1CCN(c2ncccc2C(F)(F)F)CC1 | 4.2 (≈ 1.94 µg/mL)
O=c1nc(Oc2ccccc2)c(F)c[nH]1 | 4.2 (≈ 0.866 µg/mL)
Cc1noc(C)c1COc1ccc(C(=O)N2CCCCC2c2nc3ccccc3s2)cc1 (stereo not drawn) | 6.4 (≈ 2.86 µg/mL)
COc1ccccc1N1CCN(c2cccc3c2nc(/C=C/c2ccncc2)n3C2CCNCC2)CC1 | 5.5 (≈ 2.72 µg/mL)
CS(=O)(=O)Nc1cccc(-c2cnc3[nH]cc(-c4cccc(CCN)c4)c3c2)c1 | 9.8 (≈ 3.98 µg/mL)
NC(=O)c1csc(-c2cccc(OCCNCCc3cccc(F)c3)c2)n1 | 2 (≈ 0.771 µg/mL)
O=C(c1ccccc1)N1CCN(c2ccccc2NC(=O)C(Cl)(Cl)Cl)CC1 | 1 (≈ 0.427 µg/mL)
O=C(C1CCN(c2nnc(-n3cccc3)s2)CC1)N1CCC(Cc2ccccc2)CC1 | 3.4 (≈ 1.48 µg/mL)
O=C(Nc1nc(-c2ccccn2)cs1)c1cccc(F)c1 | 2 (≈ 0.599 µg/mL)
O=C(c1cc2c(s1)CCC2)N1CCN(Cc2ccc3c(c2)OCO3)CC1 | 9.2 (≈ 3.41 µg/mL)
COc1ccc2c(ccn2C(=O)OCCC2CCNCC2)c1 | 4.4 (≈ 1.33 µg/mL)

Compound | MIC90 [µM]
CC1CCN(Cc2c(O)ccc3oc(-c4ccco4)cc(=O)c23)CC1 | 2.6 (≈ 0.882 µg/mL)
CCCCC1=NN(C(=O)c2ccncc2)C(O)(C(F)(F)F)C1 (stereo not drawn) | 5.5 (≈ 1.73 µg/mL)
O=C(Nc1nnc(-c2ccc(F)cc2)o1)c1ccc(C(F)(F)F)cc1 | 6 (≈ 2.11 µg/mL)
O=C(Nc1nc(-c2ccccn2)cc2ccccc12)c1cccc(Cl)c1 | 3 (≈ 1.08 µg/mL)
Cn1c(SCC(=O)Nc2sccc2C#N)nnc1-c1ccc(Cl)cc1 | 2.4 (≈ 0.936 µg/mL)
N#Cc1nc(-c2ccccc2)oc1S(=O)(=O)c1ccc(Cl)cc1 | 3.6 (≈ 1.24 µg/mL)
Cc1ccc(OCC(=O)Nc2ccc(C(=O)c3c(C)nc4sccn34)cc2)c(C)c1 | 3.9 (≈ 1.64 µg/mL)
CSc1ccc(C(=O)Nc2nc(-c3ccccn3)cs2)cc1 | 4.4 (≈ 1.44 µg/mL)
CSc1ccc(-c2nnc(NC(=O)c3ccc(Cl)s3)o2)cc1 | 6.5 (≈ 2.29 µg/mL)
CN(C)c1ccc(NC(=O)Nc2cccc3ncccc23)cc1 | 9.8 (≈ 3 µg/mL)
O=C(c1cccc(-c2noc(-c3ccccc3)n2)c1)N1CCCCC1CCO (stereo not drawn) | 0.9 (≈ 0.34 µg/mL)
O=C(NCc1ccccc1F)N1CCN(Cc2ccc(Br)s2)CC1 | 9.4 (≈ 3.88 µg/mL)
Cn1c(=O)c2c([S+](C)[O-])snc2n(C)c1=O (stereo not drawn) | 5.6 (≈ 1.45 µg/mL)
CCOc1ccc(C(=O)Nc2cc(Cl)c3c(c2)CNCC3)cc1C(C)=O | 9.2 (≈ 3.43 µg/mL)
COc1ccc(N(C(=O)CNc2ccccc2Nc2ccccc2)C2CCCC2)cc1 | 2.1 (≈ 0.873 µg/mL)
C=CCNCCS(=O)(=O)c1cccc(Nc2ccc(-c3ccsc3)cn2)c1 | 6 (≈ 2.4 µg/mL)
CCCc1cc(=O)[nH]c(-n2nc(C)cc2NC(=O)CC(c2ccccc2)c2ccccc2)n1 | 7.5 (≈ 3.31 µg/mL)
O=S(=O)(c1ccc(Cl)cc1)N1CCC(n2nnc3cc(C(F)(F)F)ccc32)CC1 | 7.8 (≈ 3.47 µg/mL)
